Reference: ChEMBL document CHEMBL1132339, “Lipophilic 4-isoxazolyl-1,4-dihydropyridines: synthesis and structure-activity relationships” (J Med Chem, 1999)

Molecular target: Voltage-dependent L-type calcium channel subunit alpha-1C (Rattus norvegicus, UniProt P22002)
Assay: Displacement of [3H](+)-PN200-110 binding from calcium channels of rat cardiac membranes.
Assay type: cell membranes, Membrane

Voltage-dependent L-type calcium channel subunit alpha-1C, sequence (P22002 whole entry): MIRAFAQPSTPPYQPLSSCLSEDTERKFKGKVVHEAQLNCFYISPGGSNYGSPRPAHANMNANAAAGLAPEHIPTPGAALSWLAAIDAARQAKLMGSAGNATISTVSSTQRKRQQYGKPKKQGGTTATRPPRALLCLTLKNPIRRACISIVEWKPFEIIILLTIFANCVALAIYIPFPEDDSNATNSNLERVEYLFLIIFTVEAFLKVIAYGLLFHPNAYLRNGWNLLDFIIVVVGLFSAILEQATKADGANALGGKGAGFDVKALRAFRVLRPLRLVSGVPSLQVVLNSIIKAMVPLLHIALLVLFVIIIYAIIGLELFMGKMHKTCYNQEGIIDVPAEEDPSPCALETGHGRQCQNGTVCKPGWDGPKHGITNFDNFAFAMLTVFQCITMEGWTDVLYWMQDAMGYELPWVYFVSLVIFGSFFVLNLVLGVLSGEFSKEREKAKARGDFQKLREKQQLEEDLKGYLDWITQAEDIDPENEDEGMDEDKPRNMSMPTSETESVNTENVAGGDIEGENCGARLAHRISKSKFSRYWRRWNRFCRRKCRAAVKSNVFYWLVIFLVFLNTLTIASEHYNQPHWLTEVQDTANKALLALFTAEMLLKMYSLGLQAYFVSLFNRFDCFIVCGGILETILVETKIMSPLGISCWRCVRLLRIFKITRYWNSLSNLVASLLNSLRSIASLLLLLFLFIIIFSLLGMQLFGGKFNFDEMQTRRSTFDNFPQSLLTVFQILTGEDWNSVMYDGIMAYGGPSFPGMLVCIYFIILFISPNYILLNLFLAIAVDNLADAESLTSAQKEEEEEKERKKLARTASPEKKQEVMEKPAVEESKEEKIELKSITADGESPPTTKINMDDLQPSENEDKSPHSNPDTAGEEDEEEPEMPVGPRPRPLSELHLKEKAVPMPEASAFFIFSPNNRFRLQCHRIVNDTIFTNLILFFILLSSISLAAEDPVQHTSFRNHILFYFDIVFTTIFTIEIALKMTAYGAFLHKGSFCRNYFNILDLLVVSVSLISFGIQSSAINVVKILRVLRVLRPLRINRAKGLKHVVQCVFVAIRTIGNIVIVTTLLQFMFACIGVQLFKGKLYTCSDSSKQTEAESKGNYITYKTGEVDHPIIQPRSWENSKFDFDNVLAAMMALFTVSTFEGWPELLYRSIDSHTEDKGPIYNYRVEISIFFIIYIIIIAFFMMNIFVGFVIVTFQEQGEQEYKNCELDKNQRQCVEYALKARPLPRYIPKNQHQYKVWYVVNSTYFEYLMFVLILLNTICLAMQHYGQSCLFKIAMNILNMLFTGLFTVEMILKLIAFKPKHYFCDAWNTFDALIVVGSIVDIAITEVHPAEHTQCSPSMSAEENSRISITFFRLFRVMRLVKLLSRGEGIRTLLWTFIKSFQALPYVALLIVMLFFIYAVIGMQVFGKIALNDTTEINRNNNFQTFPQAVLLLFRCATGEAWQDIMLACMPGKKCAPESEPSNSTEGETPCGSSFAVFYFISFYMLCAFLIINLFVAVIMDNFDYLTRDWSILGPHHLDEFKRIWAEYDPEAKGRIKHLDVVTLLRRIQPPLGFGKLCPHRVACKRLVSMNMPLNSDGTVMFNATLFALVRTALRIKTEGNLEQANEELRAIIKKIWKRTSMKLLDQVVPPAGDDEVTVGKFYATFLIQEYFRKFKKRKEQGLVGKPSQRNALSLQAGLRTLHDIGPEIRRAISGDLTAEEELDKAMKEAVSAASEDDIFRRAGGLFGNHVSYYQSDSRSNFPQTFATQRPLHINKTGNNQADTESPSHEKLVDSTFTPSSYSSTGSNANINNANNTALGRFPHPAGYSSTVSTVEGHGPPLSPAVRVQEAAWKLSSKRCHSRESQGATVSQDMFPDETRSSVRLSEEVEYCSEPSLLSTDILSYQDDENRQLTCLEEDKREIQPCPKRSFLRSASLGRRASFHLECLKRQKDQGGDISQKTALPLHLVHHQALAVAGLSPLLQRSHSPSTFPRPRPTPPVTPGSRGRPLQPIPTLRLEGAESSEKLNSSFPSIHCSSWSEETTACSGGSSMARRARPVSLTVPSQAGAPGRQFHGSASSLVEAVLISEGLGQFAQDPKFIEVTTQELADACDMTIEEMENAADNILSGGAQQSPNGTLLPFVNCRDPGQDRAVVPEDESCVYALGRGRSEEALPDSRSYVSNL

SMILES	Ki [µM]
CCOC(=O)C1=C(C)N=C(C)/C(=C(/O)OCC)C1c1c(C)noc1CCc1cccc2ccccc12 (stereo not drawn)	0.00216
CCOC(=O)C1=C(C)N=C(C)/C(=C(/O)OCC)C1c1c(C)noc1CCc1ccccc1-c1ccccc1 (stereo not drawn)	0.0455
CCOC(=O)C1=C(C)N=C(C)/C(=C(/O)OCC)C1c1c(C)noc1CCc1ccc2ccccc2c1 (stereo not drawn)	0.0107
